Where two headings read alike, the source gives them in different places.
What was measured:
[1] = tested on: loperamide-induced delayed gastric emptying; assay: Rat gastric emptying assay (reversal of loperamide-induced delayed gastric emptying); type: in vivo; conditions: administered orally, loperamide 1 mg/kg s.c., gastric emptying model
Method: Assay 3: Rat Model of In Vivo Efficacy In this assay the efficacy of test compounds was evaluated in a model of gastrointestinal transit, which evaluates peripheral activity. This study was approved by the Institutional Animal Care and Use Committee at […]. and conformed to the Guide for the Care and Use of Laboratory Animals published by the National Academy of Sciences (©1996). a. Rat Gastric Emptying Assay Test compounds were evaluated in the rat gastric emptying assay to determine their ability to reverse loperamide-induced delayed gastric emptying. Rats were fasted up overnight prior to administration of test compounds or vehicle by intravenous, subcutaneous, intramuscular or oral routes of administration at doses ranging from 0.001 to about 30 milligrams/kilogram (mg/kg). The administration of test compound was followed by subcutaneous administration of loperamide at a dose of 1 mg/kg or vehicle. Five minutes post loperamide or vehicle administration, a non-nutritive, non-absorbable charcoal meal was administered via oral gavage and animals were allowed free access to water for the sixty minute duration of the experiment. Animals were then euthanized via carbon dioxide asphyxiation followed by thoracotomy and the stomach was carefully excised. The stomach was ligated at the lower esophageal sphincter and the pyloric sphincter to prevent additional emptying during tissue removal. Gastric weight was then determined after removal of the ligatures. b. Data Analysis and Results Data was analyzed using the GraphPad Prism Software package (GraphPad Software, Inc., San Diego, Calif.). Percent reversal curves were constructed by non-linear regression analysis using the sigmoidal dose response (variable slope) model and best-fit ID50 values were calculated. Curve minima and maxima were fixed to loperamide control values (indicating 0% reversal) and vehicle controls (indicating 100% reversal), respectively. Results are expressed as ID50, the dose required for 50% reversal of the effects of loperamide, in milligrams per kilogram.

human mu opioid receptor [2] = target: T1, human mu opioid receptor (Homo sapiens, UniProt P35372); assay: Radioligand binding assay, human mu opioid receptor
human mu opioid receptor [3] = target: T1, human mu opioid receptor; assay: Human mu [35S]GTPγS nucleotide exchange assay (agonist mediated activation); type: biochemical; conditions: read-out: intrinsic activity (IA)
[4] = displacement of [3H]-Diprenorphine 0.5 nM, CHO-K1 cell membranes, read-out: pKi at the human mu opioid receptor (converted)
[5] = bound [35S]GTPγS relative to DAMGO (IA=100), CHO-K1 membranes expressing human mu opioid receptor

T1 sequence (P35372 whole entry): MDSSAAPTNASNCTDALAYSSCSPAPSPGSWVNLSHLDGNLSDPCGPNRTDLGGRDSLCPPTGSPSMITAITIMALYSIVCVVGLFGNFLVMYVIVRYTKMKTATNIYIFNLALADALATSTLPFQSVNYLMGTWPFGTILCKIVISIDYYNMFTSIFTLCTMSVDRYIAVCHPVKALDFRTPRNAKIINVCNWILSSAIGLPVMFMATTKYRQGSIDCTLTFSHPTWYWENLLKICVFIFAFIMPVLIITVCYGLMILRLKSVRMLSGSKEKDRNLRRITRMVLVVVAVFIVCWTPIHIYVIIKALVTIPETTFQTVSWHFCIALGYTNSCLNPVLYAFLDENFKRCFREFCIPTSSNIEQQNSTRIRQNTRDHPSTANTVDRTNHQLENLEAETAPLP

CO[C@H]1Cc2ccc(C(N)=O)cc2C(C)(C)[C@@H]1NCCCNC(=O)CC(C)(C)C [Example 12, (6S,7S)-7-[3-(3,3-Dimethyl-butyrylamino)-propylamino]-6-methoxy-8,8-dimethyl-5,6,7,8-tetrahydro-naphthalene-2-carboxylic acid amide]
ID50, dose required for 50% reversal of the effects of loperamide [1]: 0.11 mg/kg
Ki (human mu opioid receptor [2]; [4]): 0.0631 nM

CO[C@@H]1Cc2ccc(C(N)=O)cc2C(C)(C)[C@H]1NCCCNC(=O)c1ccccc1 (relative stereo) [Example 16, trans-7-(3-Benzoylamino-propylamino)-6-methoxy-8,8-dimethyl-5,6,7,8-tetrahydro-naphthalene-2-carboxylic acid amide]
ID50, dose required for 50% reversal of the effects of loperamide [1]: 0.63 mg/kg
Ki (human mu opioid receptor [2]; [4]): 0.126 nM
Emax (human mu opioid receptor [3]; [5]): -2%

CO[C@@H]1Cc2ccc(C(N)=O)cc2C(C)(C)[C@H]1NCCCNC(=O)C1CCCCC1 (relative stereo) [Example 1, trans-7-[3-(Cyclohexanecarbonyl-amino)-propylamino]-6-methoxy-8,8-dimethyl-5,6,7,8-tetrahydro-naphthalene-2-carboxylic acid amide]
ID50, dose required for 50% reversal of the effects of loperamide [1]: 0.5 mg/kg
Ki (human mu opioid receptor [2]; [4]): 0.158 nM
Emax (human mu opioid receptor [3]; [5]): 10%

CO[C@@H]1Cc2ccc(C(N)=O)cc2C(C)(C)[C@H]1NCCCNC(=O)CC(C)(C)C (relative stereo) [Example 11, trans-7-[3-(3,3-Dimethyl-butyrylamino)-propylamino]-6-methoxy-8,8-dimethyl-5,6,7,8-tetrahydro-naphthalene-2-carboxylic acid amide]
ID50, dose required for 50% reversal of the effects of loperamide [1]: 0.4 mg/kg
Ki (human mu opioid receptor [2]; [4]): 0.2 nM
Emax (human mu opioid receptor [3]; [5]): 1%

COC1Cc2ccc(C(N)=O)cc2C(C)(C)C1NC[C@H](N)Cc1ccccc1 (single isomer, unassigned) [Example 8]
Ki (human mu opioid receptor [2]): 1.58 nM
Emax (human mu opioid receptor [3]): -7%
